In patent US9066958B2 (priority 2006, dated 2015):
Like-named read-outs stand apart in the source and are kept apart here.

Tests used:
[1] = Stability of solvent with storage; type: physicochemical
[2] = Stability of vitamin D in vehicle; type: physicochemical; details: result in words; only cells marked # are direct experimental observation
Description: The liquid has minimal sensory effects i.e. it has minimal smell, taste, or texture i.e. no oily feel. The liquid is biologically natural in the context of breast-feeding, and is safe for infant consumption. The liquid per se is not subject to rancidity or oxidation over the shelf-life of the composition. […] One drop of each liquid was applied onto a nipple to determine whether it would adhere well enough so that no portion of it would drip off in a timeframe of 10 seconds. The results of these experimental observations are presented in Table 1 along with further considerations regarding the parameters desired for this invention.

Question: With CC(=O)Oc1c(C)c(C)c2c(c1C)CCC(C)(CCC[C@H](C)CCC[C@H](C)CCCC(C)C)O2 (stereo partly shown) [Eitamin E acetate oil] as the compound, how does the “Stability of solvent with storage” value [1] read?
Answer: Stable

Question: Which “Stability of solvent with storage” value [1] does the source give for Canola oil here?
Answer: Oxidizes/

Question: With Medium-chain triglyceride as the compound, how does the “Stability of solvent with storage” value [1] read?
Answer: Stable

Question: What does the source list for CCO [Ethanol]?
Answer: Stability of vitamin D in vehicle [2]: Solvent; Stability of solvent with storage ([1]; direct experimental observation): Evaporates

Question: With O [Water] as the compound, how does the “Stability of solvent with storage” value [1] read?
Answer: Stable

Question: Which “Stability of solvent with storage” value [1] does the source give for Sesame oil here?
Answer: Oxidizes/
